Test results taken from patent publication US20230414715A1, “TRAIL COMPOUNDS FOR REDUCING CANCER TREAMENT SIDE EFFECTS” (BROWN UNIVERSITY, priority 2022, published 2023).
“Also recorded” adds a separate entry of the source.

Assays:
[1] = tested on: e0771 orthotopic breast tumors in C57B1/6 mice; assay: Orthotopic e0771 breast tumor model with 20 Gy whole-thorax irradiation
Protocol: C57B1/6 female mice (Taconic) were injected with 100,000 cells of murine breast cancer (e0771) in the right second mammary fat pad on day 0 of the experiment. […] Each group (n=3) also received a single whole-thorax x-ray irradiation dose of 20 Gy with shielding of other organs. One group (n=3) received no treatment and no radiation. The long axis and short axis of the tumors were measured using calipers and recorded twice a week. On day 18 all mice were euthanized at a humane endpoint, which was defined by 20% weight loss and/or a tumor volume of 2000 mm^3 (˜10% of body weight). Organs and tumors were harvested from the mice and 600 μL of blood was collected via cardiac puncture for serum cytokine analysis. Once tumors were extracted, they were weighed and measured to determine final volume and weight. Pulse oximeter readings were taken initially before radiation treatment and before sacrifice 9 days post-radiation (MouseSTAT Jr. Pulse Oximeter, Kent Scientific). When mice were under anesthesia the sensor of the MouseSTAT Jr. was placed on the hind right paw for 30 seconds. The highest and lowest values shown by the pulse oximeter during this time were recorded and then averaged together. The mean of all the averages per treatment group was then calculated.

serum cytokines = assay: Serum cytokine analysis in the NanoString cohort; assay type: in vivo, mouse
Protocol: All mouse serum samples were analyzed by a custom R&D systems Murine Premixed Multi- Analyte Kit (R&D Systems, Inc., Minneapolis, MN). The panel was run on a Luminex 200 Instrument (Luminex Corporation, Austin, TX) according to the manufacturer's instructions. Murine serum levels of Angiopoietin-2, BAFF/BLyS/TNFSF13B, CCL2/JE/MCP-1, CCL3/MIP-1 alpha, CCL4/MIP-1 beta, CCL5/RANTES, CCL7/MCP-3/MARC, CCL11/Eotaxin, CCL12/MCP-5, CCL20/MIP-3 alpha, CCL21/6Ckine, CCL22/MDC, Chitinase 3-like 1, CXCL1/GRO alpha/KC/CINC-1, CXCL10/IP-10/CRG-2, CXCL12/S DF- 1 alpha, Dkk-1, FGF basic/FGF2/bFGF, GDF-15, GM-CSF, Granzyme B, IFN-gamma, IGF-I/IGF-1, IL-1 alpha/IL-1F1, IL-1 beta/IL-1F2, IL-2, IL-3, IL-4, IL-6, IL-7, IL-10, IL-13, IL-16, IL-17/IL-17A, IL-27, IL-33 M-CSF, MMP-3, MMP-8, MMP-12, Prolactin, TWEAK/TNFSF12, VEGF, and VEGFR2/KDR/Flk-1 were measured. Analyte values were reported in picograms per milliliter (pg/mL). […] Latent TGF-β was activated in samples using 1 N HCl and samples were neutralized with 1.2 N NaOH/0.5 M HEPES. Samples were assayed immediately after neutralization.
(§1) One hour before radiation mice were grouped into control or given 10 mg/kg of TLY012 via IP injection (n=3/gender/treatment). Mice were treated and weighed twice a week up until 11 days post-radiation when all mice were euthanized.
(§2) Rodent sacrifice was performed following anesthetization with 100 mg/kg ketamine and 10 mg/kg xylazine administered intraperitoneally. ˜400-600 μL blood was first collected throughcardiac puncture with a 26G ⅝″ needle through the intercostal space into the left ventricle. […] 1 mL of 2 mg/mL EDTA in PBS was injected through the right ventricle to perfuse the lungs, after which the lungs were excised, washed further in PBS, submerged in RNAlater (Sigma-Aldrich, #R0901, Missouri, USA), and flash frozen in liquid nitrogen.

female C57B1/6 mice = assay: 48-hour post-radiation TLY012 treatment; assay type: in vivo, mouse; details: 20 Gy, 10 mg/kg twice a week, preliminary results
Excerpt: Mice were weighed twice a week, and then euthanized on day 13 post-irradiation. […] H&E-stained slides of the lungs were imaged at 20× magnification.

[2] = tested on: mRNA from mouse lung tissue; assay: NanoString nCounter PanCancer Immune Profiling panel, mRNA from mouse lung tissue; assay type: in vivo
Protocol: as §1, §2
Frozen lung tissue was stored long-term at −80° C. Thawing was performed over 16 hours at 4° C. Tissue homogenization was performed with Precellys Lysing Kit (Cayman Chemical Company, #16859, Michigan, USA) and a Bulley Blender Homogenizer (Next Advance, #G14-G15) prior to RNA extraction with QlAgen RNeasy kit (Qiagen, #74104, Hilden, Germany) and cleaned up with QIAgen RNeasy MinElute Cleanup kit (Qiagen, #74204, Hilden, Germany). Quality and concentration were verified by Nanodrop. Extracted RNA samples were gene expression profiled by NanoString nCounter PanCancer Immune Profiling Panel (NanoString Technologies, #XTCSO-MIP1-12, Seattle, WA) according to the manufacturer's instructions.
Nanostring data was analyzed in nSolver Advanced Analysis Software and ROSALIND. Raw data was uploaded to nSolver for automated normalization, background subtraction, and quality control (QC) check. All samples passed QC. Control mice and mice treated with TLY012 lung samples were used to construct two groups to which an unpaired t-test was run to generate the data in the volcano plot that was created in ROSALIND (FIG. 5). Differential expression was determined with p-values and Benjamini-Yekutieli adjusted p-values. Pathway scores are generated in nSolver as a summarization of expression level changes of biologically related groups of genes. Pathway scores are derived from the first Principal Components Analysis (PCA) scores (1st eigenvectors) for each sample based on the individual gene expression levels for all the measured genes within a specific pathway. The cell type score itself is calculated as the mean of the log2 expression levels for all the probes included in the final calculation for that specific cell type.

[3] = NanoString cohort, FIG. 5C, relative to untreated control
[4] = all mice, treated versus control
[5] = lung, 20 Gy, relative to control

TLY012: N-terminal PEGylated recombinant human TRAIL; PEGylated trimeric TRAIL formulation
effect on anti-tumor efficacy of radiation (tumor weight and volume) ([1]; 20 Gy on day 9, treatment days 9, 12, 16, sacrifice day 18, FIG. 6B, C): no evidence that ONC201, TLY012 or their combination reduced efficacy of treatment
alveolar-wall thickness (H&E) ([1]; 9 days post irradiation): reduction
lung inflammation (H&E) ([1]; 9 days post irradiation): decreased inflammation
oxygen saturation (pulse oximetry) ([1]; 9 days post-radiation, versus irradiated mice without further treatment, FIG. 6D): more conserved; also recorded: partially rescued
CCL22/MDC levels ([1]; irradiated tumor-bearing mice, versus irradiated control, FIG. 6E): significant decrease; also recorded: reduction; also recorded: Reduced
rescue from radiation induced pneumonitis ([1]; tumor-bearing mice, 20 Gy): more potent by TLY012 than with ONC201
CCL3/MIP-lalpha serum level (serum cytokines; [3]): decrease
GDF-15 serum level (serum cytokines; [3]): decrease
IL-1beta serum level (serum cytokines; [3]): increase
fold-change in the cytokine levels of inflammatory markers in serum (serum cytokines; serum taken 3 days after last administration): no statistically significant fold-change
rescue when treatment starts 48 hours after irradiation (female C57B1/6 mice): some rescue is possible
genes with statistically significant differential expression ([2]; TRAIL-/- mice, 20 Gy, treated versus control): 16
“Antigen Processing” pathway score [2, 4]: significant increases
“Interferon” pathway score [2, 4]: significant increases
“Antigen Processing” pathway score ([2]; female cohort): significant increases
“Basic Cell Functions” pathway score ([2]; female cohort): decrease
“Dendritic Cell Functions” pathway score ([2]; female cohort): significant increases
“MHC” pathway score ([2]; female cohort): significant increases
BCL6 mRNA [2, 5]: downregulated
CCL6 mRNA [2, 5]: upregulated
DOCKS mRNA [2, 5]: downregulated
FOXJ1 mRNA [2, 5]: downregulated
H2-Q2 mRNA [2, 5]: downregulated
HERC6 mRNA [2, 5]: upregulated
IKZF2 mRNA [2, 5]: downregulated
IL1RL2 mRNA [2, 5]: upregulated
KLRA7 mRNA [2, 5]: upregulated
MAPK8 mRNA [2, 5]: downregulated
PTGS2 mRNA [2, 5]: downregulated
RAET1A mRNA [2, 5]: downregulated
RELB mRNA [2, 5]: upregulated
RRAD mRNA [2, 5]: downregulated
TMEM173 mRNA [2, 5]: upregulated
TNFSF10 mRNA [2, 5]: upregulated
